Measurements as given in PubChem BioAssay (NCI).
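Interpolation was linear, between the two tested concentrations surrounding the appropriate level; five concentrations were tested over 48 hours in 96-well plates. GI50 = concentration required for 50% inhibition of growth. TGI denotes the concentration required for complete inhibition of growth.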

Key:
Assay in all cases: growth of human tumour cells (NCI), 48 h
A549 NSCLC = system: A549 NSCLC
NCI-H460 lung = system: NCI-H460 lung
HOP-62 NSCLC = system: HOP-62 NSCLC
OVCAR-5 ovarian = system: OVCAR-5 ovarian
SW-620 colon = system: SW-620 colon
SK-OV-3 ovarian = system: SK-OV-3 ovarian
OVCAR-8 ovarian = system: OVCAR-8 ovarian
MDA-N = system: MDA-N
SN12C renal = system: SN12C renal
T-47D breast = system: T-47D breast
RXF 393 renal = system: RXF 393 renal

| SMILES | TGI (A549 NSCLC) | TGI (NCI-H460 lung) | TGI (HOP-62 NSCLC) | TGI (OVCAR-5 ovarian) | TGI (SW-620 colon) | TGI (SK-OV-3 ovarian) | TGI (OVCAR-8 ovarian) | TGI (MDA-N) | TGI (SN12C renal) | TGI (T-47D breast) | GI50 (OVCAR-5 ovarian) | GI50 (SW-620 colon) | GI50 (SK-OV-3 ovarian) | GI50 (RXF 393 renal) | TGI (RXF 393 renal) | GI50 (OVCAR-8 ovarian) | GI50 (A549 NSCLC) | GI50 (NCI-H460 lung) | GI50 (HOP-62 NSCLC) | GI50 (SN12C renal) |
| --- | --- | --- | --- | --- | --- | --- | --- | --- | --- | --- | --- | --- | --- | --- | --- | --- | --- | --- | --- | --- |
| C=C(CCOC)CCC1CCCCC(=C)[C@H]1O (some centres not stated) | > 100 µM | > 100 µM | > 100 µM | > 100 µM | > 100 µM | > 100 µM | > 100 µM | > 100 µM | > 100 µM | > 100 µM | – | – | – | – | – | – | – | – | – | – |
| C[PH+](c1nc2ccccc2nc1[PH+](C)C(C)(C)C)C(C)(C)C.C[PH+](c1nc2ccccc2nc1[PH+](C)C(C)(C)C)C(C)(C)C.[Au+].[Cl-] (configuration not stated) | – | – | – | 0.457 µM | 1.18 µM | 0.117 µM | 1.88 µM | – | – | – | 0.0441 µM | 0.0356 µM | 0.0293 µM | 0.103 µM | 0.449 µM | 0.0358 µM | – | – | – | – |
| CC(C)(CN1CCCCC1)C(/C=C/c1ccccc1)=N\NC(=O)N/N=C(/C=C/c1ccccc1)C(C)(C)CN1CCCCC1 | 6.12 µM | 2.67 µM | 3.71 µM | 15.4 µM | 3.13 µM | 9.52 µM | 3.38 µM | 3.01 µM | 4.03 µM | – | – | – | – | – | – | – | – | – | – | – |
| Cc1nc2c(n1-c1ccccc1)C(=O)c1ccccc1C2=O | > 100 µM | > 100 µM | > 100 µM | > 100 µM | > 100 µM | > 100 µM | > 100 µM | – | > 100 µM | – | – | – | – | – | > 100 µM | – | – | – | – | – |
| O=c1c2cc(Br)ccc2ncn1COCc1ccccc1 | > 100 µM | – | – | > 100 µM | > 100 µM | > 100 µM | > 1 µM | – | – | – | – | – | – | – | > 100 µM | – | – | – | – | – |
| CC1=CC[C@](C)(O)[C@@]2(C)CC[C@H]3C(=C(C)C)C(=O)C[C@]3(C)C[C@H]12 | > 50 µM | – | > 50 µM | > 50 µM | > 50 µM | > 50 µM | > 50 µM | – | > 50 µM | > 50 µM | – | – | – | – | > 50 µM | – | – | – | – | – |
| CS(=O)(=O)[O-].CS(=O)(=O)[O-].NC1CCCCC1N.[Pt+4] (configuration not stated) | > 100 µM | > 100 µM | > 100 µM | > 100 µM | > 100 µM | > 100 µM | > 100 µM | – | > 100 µM | – | > 100 µM | 13 µM | > 100 µM | > 100 µM | > 100 µM | > 74 µM | 80.3 µM | 47.2 µM | > 100 µM | > 84.7 µM |
| C=C(C)[C@@H]1CC[C@]2(CO)CC[C@]3(C)[C@H](CC[C@@H]4[C@@](C)(CCCN)[C@H](C(=C)C)CC[C@]43C)[C@@H]12 | 3.43 µM | 3.24 µM | – | 3.04 µM | 3.51 µM | 3.18 µM | – | – | 2.75 µM | – | 1.68 µM | 1.75 µM | 1.71 µM | – | – | – | 1.73 µM | 1.65 µM | – | 1.39 µM |
| O=C(O)COc1cc(-c2ccccc2)nc2ccccc12 | > 100 µM | > 100 µM | > 100 µM | > 100 µM | > 100 µM | > 100 µM | > 100 µM | 85.7 µM | > 100 µM | > 100 µM | – | – | – | – | – | – | – | – | – | – |
| O=c1nc2ccc3sc4ccccc4c(=O)c3n2c(=O)[nH]1 | > 100 µM | > 100 µM | > 100 µM | > 100 µM | > 100 µM | – | > 100 µM | > 100 µM | > 100 µM | – | – | – | – | – | > 100 µM | – | – | – | – | – |
| CCN(CC)/[N+]([O-])=N/O | > 100 µM | > 100 µM | > 100 µM | > 100 µM | > 100 µM | > 100 µM | > 100 µM | – | > 100 µM | – | – | – | – | – | > 100 µM | – | – | – | – | – |
| C[C@]12CC[C@H]3[C@@H](CCC4=C(Br)C(=O)C=C[C@@]43O)[C@@H]1CCC2=O | > 100 µM | 63.4 µM | > 100 µM | > 100 µM | > 100 µM | > 100 µM | 80.2 µM | > 100 µM | > 100 µM | – | – | – | – | – | 57.1 µM | – | – | – | – | – |
| C=CCCCCn1c2ccccc2c2c(C)c3cnccc3c(C)c21 | 32.2 µM | 39.2 µM | 35.9 µM | 40.4 µM | 73.6 µM | 35.9 µM | 21.2 µM | – | 29.7 µM | – | – | – | – | – | 43 µM | – | – | – | – | – |
| COc1ccc2c(c1)C(=O)C1CCC(=O)N1C2c1ccc2c(c1)OCO2 (configuration not stated) | 51.5 µM | 64.4 µM | 42.8 µM | 28.1 µM | 23.7 µM | 63.1 µM | 44.2 µM | > 100 µM | 24.4 µM | 48.5 µM | – | – | – | – | – | – | – | – | – | – |
| COc1cccc(C23CCCC(C2)N(C)CC3OC(=O)c2ccccc2)c1OC (configuration not stated) | > 100 µM | > 100 µM | > 100 µM | > 100 µM | > 100 µM | 97.7 µM | 38.7 µM | 37.7 µM | – | 81.2 µM | – | – | – | – | – | – | – | – | – | – |
| COc1cc2oc(=O)cc(C)c2c(OC)c1OC(C)=O | > 100 µM | – | > 100 µM | > 100 µM | > 100 µM | > 100 µM | > 100 µM | > 100 µM | > 100 µM | – | – | – | – | – | – | – | – | – | – | – |
